Like-named read-outs stand apart in the source and are kept apart here.
Columns and labels:
[1] = Free energy of hydration predicted with the QM-parameterized force field model (ARROW FF), classical MD and PIMD simulation in a water box; conditions: for Arrow error: Table 5, error of Arrow PIMD8 hydration free energy vs experiment; for Arrow PIMD8 Error: absolute error vs Exp (hydration)
Procedure, shortened: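 Classical and PIMD runs (MTS integrator, MTTK barostat at 1 atm) followed minimization and 50 ps equilibration, with 1 ns NPT production per window. Fifteen unequally spaced lambda windows removed all solute-solvent interactions simultaneously in a 32 Å water box. Hydration free energy computed by Bennett acceptance ratio and thermodynamic integration.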

[2] = Free energy of solvation in cyclohexane predicted with the QM-parameterized force field model (ARROW FF), MD and PIMD; conditions: Table 4; for CHEX Arrow MD Error: error of MD cyclohexane solvation free energy vs experiment; for CHEX Arrow PIMD4 Error: error of PIMD4 cyclohexane solvation free energy vs experiment
Excerpt: Cyclohexane (CHEX) is nonpolar and equilibrates relatively quickly.
Particle-Mesh Ewald (PME) algorithm was used to compute the electrostatic interactions. A 32×32×32 grid mesh and 5th power spline interpolation order can be used to compute the inverse PME sum. 9 Å cutoffs were used to compute the direct PME sum as well as the exchange and dispersion interactions. Bulk corrections were applied to account for distance cut-off of dispersion interactions. Solvation free energies were computed by decoupling the interactions between the solute and the solvent molecules. Electrostatic, exchange-repulsion and dispersion interactions were switched off simultaneously using a lambda-dependent scaling (a scaling factor power=2 was used) and a soft-coring algorithm (maximal soft-coring radius=1.5 Å, soft-coring radius scaling factor power=1). 15 lambda points unequally spaced (X=0, 0.05, 0.1, 0.2, 0.3, 0.4, 0.5, 0.6, 0.7, 0.75, 0.8, 0.85, 0.9, 0.95, 1.0) were used to decouple the solute-solvent intermolecular interactions.
In some simulations of the QM-parameterized force field molecular simulation process, energy minimization (10,000 steps) using the steepest descent algorithm was initially performed on all the simulation systems. This was followed by a 50 ps equilibration and 1 ns production runs in the isothermal-isobaric ensemble (NPT). […] Pressure was maintained at 1 atm using a MTTK barostat (relaxation time=5 ps). A Multiple Time Step (MTS) algorithm was used to integrate the equations of motion both for the classical and path-integral runs. […] The calculations were performed using the QM-parameterized force field model.
Using the QM-parameterized force field model, the QM-parameterized force field device can compute or predict the solvation free energies using both the Bennett acceptance ratio (BAR) and thermodynamic integration (TI) method with <dH/dλ> values interpolated by cubic splines.

[3] = CHEX/H2O partition coefficient (log D) predicted with the QM-parameterized force field model (ARROW FF)
Procedure, shortened: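 Cyclohexane/water partition coefficients were predicted by molecular simulation with a QM-parameterized force field, with bonded force constants and equilibrium values fitted to MP2/aug-cc-pVTZ energies. Solutes carried neutral functional groups, and results from four independent groups were averaged.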

[4] = Free energy of hydration predicted by General Amber Force Field (GAFF), from literature; conditions: Table 5; error of GAFF hydration free energy vs experiment
[5] = Free energy of hydration predicted by polarizable AMOEBA force field, from literature; conditions: Table 5; error of AMOEBA hydration free energy vs experiment
[6] = Free energy of hydration by COSMO implicit solvent model (MolPro ver. 2012); conditions: absolute error vs Exp (hydration)
Procedure, shortened: (§1)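 The set is limited to molecules shared with the QM-parameterized force field calculations for the SMD, PCM and COSMO-RS models. SMD and PCM predictions came from an outside source, while COSMO solvation free energies were generated in-house with MolPro.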

[7] = Free energy of hydration by Solvation Model Dielectric (SMD) implicit solvent model; conditions: absolute error vs Exp (hydration)
Procedure, shortened: as §1

[8] = Free energy of hydration by Polarizable Continuum Model (PCM); conditions: absolute error vs Exp (hydration)
Procedure, shortened: as §1

[9] = Free energy of hydration by COSMO-RS
Procedure, shortened: as §1

[10] = experimental, cited from earlier work; for Exp (hydration): Table 5
[11] = experimental, cited from earlier work
[12] = Table 5; free energy of hydration, GAFF prediction taken from literature; cited from earlier work
[13] = Table 5; free energy of hydration, AMOEBA prediction taken from literature; cited from earlier work
[14] = implicit solvent model, values received; cited from earlier work
[15] = implicit solvent model, values received; cited from earlier work; remark: listed apart in the source
[16] = CHEX/H2O partition coefficient, experimental, cited from earlier work; for Exp (log D): Table 3; for logD Exp (logD): Table 4
[17] = Table 3, absolute error of MD hydration free energy vs experiment
[18] = Table 3, absolute error of PIMD8 hydration free energy vs experiment
[19] = Table 4, error of MD hydration free energy vs experiment
[20] = Table 4, error of PIMD8 hydration free energy vs experiment
[21] = Table 4, error of MD logD vs experiment
[22] = Table 4, error of PIMD logD vs experiment
[23] = Table 3, free energy of hydration
[24] = Table 4, neutral amino-acid analogues
[25] = Table 3, free energy of solvation in cyclohexane
[26] = Table 4, solvation free energy in cyclohexane

SMILES | water Arrow MD Error [1, 17] [kcal/mol] | water Arrow PIMD8 Error [1, 18] [kcal/mol] | water Arrow MD Error [1, 19] [kcal/mol] | water Arrow PIMD8 Error [1, 20] [kcal/mol] | Arrow error [1] [kcal/mol] | Arrow PIMD8 Error [1] [kcal/mol] | CHEX Arrow MD Error [2] [kcal/mol] | CHEX Arrow PIMD4 Error [2] [kcal/mol] | GAFF error [4] [kcal/mol] | AMOEBA error [5] [kcal/mol] | COSMO/Molpro Error [6] [kcal/mol] | SMD Error [7] [kcal/mol] | PCM Error [8] [kcal/mol] | water Exp (hydration) [10, 23] [kcal/mol] | water Exp (hydration) [10, 24] [kcal/mol] | Exp (hydration) ([10]; free energy of hydration) [kcal/mol] | CHEX Exp (solvation) [11, 25] [kcal/mol] | CHEX Exp (solvation) [11, 26] [kcal/mol] | GAFF [12] [kcal/mol] | AMOEBA [13] [kcal/mol] | further results
CCCC [Butane] | 0.70 | 0.04 | 0.70 | 0.04 | 0.04 | 0.04 | 0.46 | 0.20 | 0.44 | 0.99 | 2.65 | 0.10 | 2.30 | 2.10 | 2.10 | 2.10 | -2.72 | -2.72 | 2.54 | 1.11 | log D Arrow MD Error ([3]; Table 3, absolute error of MD log D vs experiment): 0.18; log D Arrow PIMD Error ([3]; Table 3, absolute error of PIMD log D vs experiment): 0.17; logD Arrow MD Error [3, 21]: 0.18; logD Arrow PIMD Error [3, 22]: 0.17; COSMO-RS error [9]: 0.03 kcal/mol; SMD free energy of hydration [14]: 2.00 kcal/mol; PCM free energy of hydration [15]: -0.20 kcal/mol; Exp (log D) [16]: 3.54; logD Exp (logD) [16]: 3.54
CS [MethaneThiol] | 0.79 | 0.43 | 0.79 |  | 0.43 | 0.43 | 0.39 | 0.30 | 0.41 | 0.98 | 2.71 | 0.42 | 0.88 | -1.219 | -1.219 | -1.24 |  | -2.46 | -0.83 | -0.26 | logD Arrow MD Error [3, 21]: 0.29; logD Arrow PIMD Error [3, 22]: 0.09; Exp (hydration) free energy of hydration [10]: -1.22 kcal/mol; SMD free energy of hydration [14]: -0.80 kcal/mol; PCM free energy of hydration [15]: -2.10 kcal/mol; logD Exp (logD) [16]: 0.91
CCSC [EthylMethylSulfide] | 0.47 | 0.11 | 0.47 | 0.11 | 0.11 | 0.11 | 0.83 | 0.51 | 1.84 | 0.48 | 2.70 |  |  | -1.5 | -1.5 | -1.50 | -3.78 | -3.78 | 0.34 | -1.98 | log D Arrow MD Error [3]: 0.27; log D Arrow PIMD Error [3]: 0.29; logD Arrow MD Error [3]: 0.27; logD Arrow PIMD Error [3]: 0.29; Exp (log D) [16]: 1.67; logD Exp (logD) [16]: 1.67
CO [Methanol] | 0.28 | 0.35 | 0.28 | 0.35 | 0.33 | 0.35 | 0.42 | 0.24 | 0.74 | 0.32 | 1.37 | 0.91 | 1.91 |  |  |  | -1.29 | -1.29 | -4.37 | -4.79 | log D Arrow MD Error [3]: 0.10; log D Arrow PIMD Error [3]: 0.43; logD Arrow MD Error [3]: 0.10; logD Arrow PIMD Error [3]: 0.43; COSMO-RS error [9]: 0.18 kcal/mol; Exp (log D) [16]: −2.80; logD Exp (logD) [16]: −2.80
CC(=O)O [AceticAcid] | 0.19 | 0.34 | 0.19 | 0.34 | 0.34 | 0.34 | 0.09 | 0.01 | 0.74 | 1.06 | 2.47 | 0.99 | 2.19 | -6.69 | -6.69 | -6.69 | -2.20 | -2.20 | -5.95 | -5.63 | COSMO-RS error [9]: 0.22 kcal/mol; SMD free energy of hydration [14]: -5.70 kcal/mol; PCM free energy of hydration [15]: -4.50 kcal/mol

Reference: patent publication US20230129485A1, “SYSTEM AND METHOD FOR DETERMINING MATERIAL PROPERTIES OF MOLECULAR SYSTEMS FROM AN AB-INITIO PARAMETERIZED FORCE-FIELD” (InterX, Inc., priority 2021, published 2023)
